Assays:
[1] = tested on: platelet-poor plasma (PPP); test: Activated partial thromboplastin time (APTT), rabbit blood coagulogram in vitro; type: biochemical; conditions: 100 μM, M ± m, n = 6;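 also: clotting time read chronometrically on a hemocoagulometer with commercial reagent kits, one of several coagulogram parameters alongside thrombin and prothrombin time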
Experimental: Test compounds and the reference drug were evaluated at a concentration of 100 μM. Effect on rabbit blood coagulograms in vitro was determined chronometrically with a SOLAR hemocoagulometer (Minsk, Belarus) using commercial kits (Technology-Standard, Barnaul, Russia) as per the manufacturer’s instructions. The following parameters were determined: activated partial thromboplastin time, thrombin time, and prothrombin time.

[2] = tested on: platelet-poor plasma (PPP); test: Thrombin time (TT), rabbit blood coagulogram in vitro; type: biochemical; conditions: rabbit blood in vitro, 100 μM; for TT: M ± m, n = 6
[3] = tested on: platelet-poor plasma (PPP); test: Prothrombin time (PT), rabbit blood coagulogram in vitro; conditions: 100 μM, M ± m, n = 6;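 also: clotting time read chronometrically on a hemocoagulometer using commercial reagent kits, with dabigatran etexilate at the same concentration as reference anticoagulant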
Experimental: The study was performed on platelet-poor plasma (PPP) stabilized with a 3.8% sodium citrate solution in a ratio of 9:1 according to the method described in [34]. Dabigatran etexilate (Boehringer Ingelheim Pharma GmbH and Co., Ingelheim am Rhein, Germany) was used as the reference drug. Test compounds and the reference drug were evaluated at a concentration of 100 μM. Effect on rabbit blood coagulograms in vitro was determined chronometrically with a SOLAR hemocoagulometer (Minsk, Belarus) using commercial kits (Technology-Standard, Barnaul, Russia) as per the manufacturer’s instructions. The following parameters were determined: activated partial thromboplastin time, thrombin time, and prothrombin time.

| melting point [°C] | SMILES | APTT [1] [s] | increase of thrombin time relative to the control [2] [times] | TT [2] [s] | PT [3] [s] | anticoagulant activity / thrombin time prolongation compared with dabigatran etexilate [2] |
| --- | --- | --- | --- | --- | --- | --- |
| – | C1=C(c2ccccc2)n2ncnc2NC1c1ccccc1 (centres unmarked) [Compound 5a] | 26.3 ± 2.9 | 3.5 | 43.8 ± 4.3 | 13.4 ± 0.1 | – |
| – | CCOC(=O)C1=C(C)Nc2ncnn2C1c1ccccc1 (centres unmarked) [Compound 8c] | 34.6 ± 0.7 | – | 34.7 ± 0.7 | 14.2 ± 0.1 | – |
| – | N=C(N)Nc1nnc2ncc(SCc3ccccc3)n2n1 [Compound 15a] | 34.0 ± 0.6 | – | 32.8 ± 0.8 | 14.5 ± 0.3 | – |
| – | CCCCn1c2ccccc2c2nc3cc(C)c(C)cc3nc21 [Compound 1g] | 30.6 ± 1.6 | – | 34.1 ± 0.9 | 11.7 ± 0.4 | – |
| 270 to 272 | CCOC(=O)C1=C(C)Nc2ncnn2C1c1ccc(NC(=O)CN)cc1 (centres unmarked) [Compound 10b, Ethyl 7-(4-(2-aminoacetamido)phenyl)-5-methyl-4,7-dihydro-[1,2,4]triazolo[1,5-a]pyrimi-dine-6-carboxy-late] | 30.6 ± 2.6 | – | 27.1 ± 1.4 | 12.7 ± 0.2 | – |
| 270 to 272 | CCOC(=O)C1=C(C)Nc2ncnn2C1c1cccc(NC(=O)CN)c1 (centres unmarked) [Compound 10a, Ethyl 7-(3-(2-aminoacetamido)phenyl)-5-methyl-4,7-dihydro-[1,2,4]triazolo[1,5-a]pyrimi-dine-6-carboxylate] | 30.9 ± 0.6 | 3.5 | 48.6 ± 22.4 | 13.2 ± 1.0 | – |
| 235 to 237 | N=C(N)Nc1nnc2nnc(SCc3cccc(F)c3)n2n1 [Compound 16] | 26.3 ± 1.1 | – | 25.9 ± 1.6 | 14.1 ± 0.3 | – |
| – | Cc1cc2nc3c4ccccc4n(CCN(C)C)c3nc2cc1C [Compound 1a] | 22.1 ± 5.9 | – | 22.7 ± 2.0 | 14.5 ± 0.0 | – |
| – | c1ccc2nc3c(nc2c1)c1ccccc1n3CCN1CCOCC1 [Compound 1d] | 18.2 ± 0.5 | – | 26.7 ± 1.3 | 13.4 ± 0.3 | – |
| – | Cc1cc2nc3c4ccccc4n(CCCN(C)C)c3nc2cc1C [Compound 1i] | 32.1 ± 4.8 | – | 21.9 ± 1.2 | 13.8 ± 0.3 | – |
| – | CCCn1c2ccccc2c2nc3ccccc3nc21 [Compound 1f] | 24.8 ± 4.2 | 3.5 | 39.3 ± 1.8 | 13.1 ± 0.3 | – |
| – | C1=C(c2ccccc2)n2ncnc2NC1c1cccs1 (centres unmarked) [Compound 5b] | 25.9 ± 2.2 | – | 21.0 ± 0.0 | 15.8 ± 0.3 | – |
| – | Cc1cc2nc3c4ccccc4n(CCN4CCOCC4)c3nc2cc1C [Compound 1c] | 27.1 ± 2.0 | – | 26.2 ± 1.0 | 13.8 ± 0.4 | – |
| > 260 | CCCCCCCCSc1nnc2nnc(NC(=N)N)nn12 [Compound 16a, 6-Guanidino-3-octylthio-[1,2,4]triazolo[4,3-b][1,2,4,5]tetrazine] | 29.1 ± 1.4 | – | 34.3 ± 4.7 | 12.2 ± 0.2 | – |
| – | O=[N+]([O-])C1=NNc2ncnn2C1O (centres unmarked) [Compound 14, 6-Nitro-7-hydroxy-4,7-dihydro-1,2,4-triazolo[5,1-c]triazinyl-4 guanidate] | 24.5 ± 0.8 | – | 23.8 ± 3.5 | 14.5 ± 0.5 | – |
| – | C1=C(c2cccs2)n2ncnc2NC1c1ccccc1 (centres unmarked) [Compound 5c] | 27.6 ± 1.9 | – | 41.4 ± 3.1 | 13.9 ± 0.2 | – |
| – | COC1C([N+](=O)[O-])=CNc2nc(C(F)(F)F)nn21 (centres unmarked) [Compound 12a, 2-Trifluoromethyl-6-nitro-7-methoxy-4,7-dihydro[1,5-a]pyrimidyl-4 guanidate] | 25.1 ± 0.8 | – | 24.3 ± 3.5 | 14.2 ± 0.1 | – |
| – | CN(C)CCn1c2ccccc2c2nc3ccccc3nc21 [Compound 1b] | 26.8 ± 2.4 | – | 23.9 ± 0.9 | 13.3 ± 0.2 | – |
| – | CCCCCCCCCCCCSc1cnc2nnc(NC(=N)N)nn12 [Compound 15b] | 34.1 ± 0.5 | – | 33.7 ± 0.6 | 14.0 ± 0.2 | – |
| – | CCCn1c2ccccc2c2nc3cc(C)c(C)cc3nc21 [Compound 1e] | 29.6 ± 0.2 | – | 38.0 ± 0.5 | 13.4 ± 0.1 | – |
| – | CCCCn1c2ccccc2c2nc3ccccc3nc21 [Compound 1h] | 25.7 ± 3.1 | – | 35.6 ± 1.1 | 13.9 ± 0.1 | – |
| – | CN(C)CCCn1c2ccccc2c2nc3ccccc3nc21 [Compound 1j] | 32.5 ± 0.1 | – | 22.0 ± 2.7 | 14.2 ± 0.4 | – |
| 211 to 214 | Nc1ccc(-c2cc(-c3cccs3)n3ncnc3n2)cc1 [Compound 7b, 4-(7-(Thiophen-2-yl)-[1,2,4]triazolo[1,5-a]pyrimidin-5-yl)aniline] | 35.0 ± 0.2 | – | 32.3 ± 0.9 | 13.6 ± 0.5 | – |
| 169 to 171 | Nc1ccc(-c2cc(-c3ccc(N)cc3)n3ccnc3n2)cc1 [Compound 7a, 4,4′-(Imidazo[1,2-a]pyrimidine-5,7-diyl)dianiline] | 56.23 ± 5.05 | – | 66.58 ± 4.64 | 11.62 ± 1.00 | comparable to dabigatran etexilate in terms of activity |
| 252 to 253 | N=C(N)Nc1nnc2nnc(SC3CCCC3)n2n1 [Compound 16b, 6-Guanidino-3-cyclopentylthio-[1,2,4]triazolo[4,3-b][1,2,4,5]tetrazine] | 24.7 ± 1.2 | – | 22.7 ± 1.7 | 13.9 ± 0.5 | – |

Reference: PMC10648877, “Novel Substituted Azoloazines with Anticoagulant Activity” (International Journal of Molecular Sciences, 2023)
